Test system: isolated mouse vas deferens
Format: cell-based
Description: The compounds were examined for their ability to inhibit neurally evoked contractions of the isolated mouse vas deferens preparation (method of Hughes et al, Brain Research, 88 (1975) 296, using pulses at 0.1 Hz).
The heights of the five contractions that immediately preceded the addition of the first "dose" of test compound were measured and their mean calculated. The resultant mean contraction associated with a particular bath concentration of test compound was calculated from the heights of the 6th, 7th, 8th, 9th and 10th contractions after the addition of the appropriate "dose" of test compound, i.e. the five contractions that immediately preceded the subsequent "dose" or washout.
Generally at least two cumulative dose response curves were constructed and a mean D50 calculated.

Structure (SMILES) | Reversal of the inhibition of the contractions by naloxone | Relative Potency (Morphine) (RP=antilog[logD50(MORPHINE) - logD50(TEST COMPOUND)], morphine = 1.0)
CN1CC[C@]23c4c5ccc(O)c4O[C@H]2[C@@H](O)C=C[C@H]3[C@H]1C5 [Morphine] | Reversal of the inhibition of the contractions was effected | 
COC(=O)[C@H](CCSC)NC(=O)[C@H](Cc1ccccc1)NC(=O)CNC(=O)[C@@H](C)NC(=O)[C@@H](N)Cc1ccc(O)cc1 [5(b), H.Tyr. --D-Ala.Gly.Phe.Met.OMe] |  | 94

From patent USH810H, “Biologically active amides” (priority 1976, dated 1990)
